Measured values: ChEMBL document CHEMBL2417377, “Hit-to-lead optimization and kinase selectivity of imidazo[1,2-a]quinoxalin-4-amine derived JNK1 inhibitors” (Bioorg Med Chem Lett, 2013)

Tests used:
[1] = biological target: Cyclin-dependent kinase 2 (Homo sapiens) (UniProt P24941); experiment: Inhibition of CDK2 in human PC3 cell lysates at 10 uM using desthiobiotin-tagged ATP probe AX9989 followed by trypsinization by LC/MS analysis; details: PC-3
[2] = biological target: p38 delta/gamma (Homo sapiens) (UniProt O15264+P53778); experiment: Inhibition of p38delta/gamma in human PC3 cell lysates at 10 uM using desthiobiotin-tagged ATP probe AX9989 followed by trypsinization by LC/MS analysis; format: protein assay; details: PC-3
[3] = biological target: Microtubule-associated serine/threonine-protein kinase 3 (Homo sapiens, UniProt O60307); experiment: Inhibition of MAST3 in human PC3 cell lysates at 10 uM using desthiobiotin-tagged ATP probe AX9989 followed by trypsinization by LC/MS analysis; details: PC-3
[4] = Inhibition of PITSLRE in human PC3 cell lysates at 10 uM using desthiobiotin-tagged ATP probe AX9989 followed by trypsinization by LC/MS analysis; format: cell-free; details: PC-3
[5] = biological target: Cyclin-dependent kinase 14 (Homo sapiens) (UniProt O94921); experiment: Inhibition of PFTAIRE1 in human PC3 cell lysates at 10 uM using desthiobiotin-tagged ATP probe AX9989 followed by trypsinization by LC/MS analysis; details: PC-3
[6] = biological target: Phosphatidylinositol 4,5-bisphosphate 3-kinase catalytic subunit beta isoform (Homo sapiens) (UniProt P42338); experiment: Inhibition of PIK3CB in human PC3 cell lysates at 10 uM using desthiobiotin-tagged ATP probe AX9989 followed by trypsinization by LC/MS analysis; details: PC-3
[7] = biological target: T1, Ephrin type-B receptor 4 (Homo sapiens) (UniProt P54760); experiment: Inhibition of EphB4 in human PC3 cell lysates at 10 uM using desthiobiotin-tagged ATP probe AX9989 followed by trypsinization by LC/MS analysis; details: PC-3
T1 sequence (whole entry): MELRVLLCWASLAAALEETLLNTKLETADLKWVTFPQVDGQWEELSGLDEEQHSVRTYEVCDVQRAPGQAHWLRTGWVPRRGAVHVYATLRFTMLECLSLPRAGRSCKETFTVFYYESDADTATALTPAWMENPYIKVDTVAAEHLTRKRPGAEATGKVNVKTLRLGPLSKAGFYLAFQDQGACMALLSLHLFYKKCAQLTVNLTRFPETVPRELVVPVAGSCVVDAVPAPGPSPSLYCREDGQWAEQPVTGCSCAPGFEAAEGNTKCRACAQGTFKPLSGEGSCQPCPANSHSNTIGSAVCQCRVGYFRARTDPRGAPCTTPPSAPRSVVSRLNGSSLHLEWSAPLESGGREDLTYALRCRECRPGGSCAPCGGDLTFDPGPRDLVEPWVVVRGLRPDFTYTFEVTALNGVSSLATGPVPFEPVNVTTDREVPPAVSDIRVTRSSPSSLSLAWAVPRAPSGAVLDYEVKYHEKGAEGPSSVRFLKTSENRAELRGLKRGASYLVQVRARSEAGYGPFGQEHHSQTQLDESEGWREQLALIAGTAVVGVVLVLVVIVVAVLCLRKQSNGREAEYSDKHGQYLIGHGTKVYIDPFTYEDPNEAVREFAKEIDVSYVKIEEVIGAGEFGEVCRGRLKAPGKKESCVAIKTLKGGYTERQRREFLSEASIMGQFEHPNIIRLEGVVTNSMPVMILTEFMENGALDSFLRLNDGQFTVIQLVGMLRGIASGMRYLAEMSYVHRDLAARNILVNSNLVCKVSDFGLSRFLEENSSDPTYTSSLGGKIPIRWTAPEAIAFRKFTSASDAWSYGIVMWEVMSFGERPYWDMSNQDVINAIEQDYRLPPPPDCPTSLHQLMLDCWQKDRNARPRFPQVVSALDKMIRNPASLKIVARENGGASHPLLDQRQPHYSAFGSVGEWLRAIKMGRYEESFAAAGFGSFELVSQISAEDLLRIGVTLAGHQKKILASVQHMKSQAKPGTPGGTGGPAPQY

PC-3 = experiment: Inhibition of ZC1/HGK/ZC2/TNIK/ZC3/MINK in human PC3 cell lysates at 10 uM using desthiobiotin-tagged ATP probe AX9989 followed by trypsinization by LC/MS analysis; format: cell-free
[8] = biological target: Hepatocyte growth factor receptor (Homo sapiens) (UniProt P08581); experiment: Inhibition of MET in human PC3 cell lysates at 10 uM using desthiobiotin-tagged ATP probe AX9989 followed by trypsinization by LC/MS analysis; details: PC-3
[9] = biological target: T2, Ephrin type-A receptor 1 (Homo sapiens) (UniProt P21709); experiment: Inhibition of EphA1 in human PC3 cell lysates at 10 uM using desthiobiotin-tagged ATP probe AX9989 followed by trypsinization by LC/MS analysis; details: PC-3
T2 sequence (whole entry): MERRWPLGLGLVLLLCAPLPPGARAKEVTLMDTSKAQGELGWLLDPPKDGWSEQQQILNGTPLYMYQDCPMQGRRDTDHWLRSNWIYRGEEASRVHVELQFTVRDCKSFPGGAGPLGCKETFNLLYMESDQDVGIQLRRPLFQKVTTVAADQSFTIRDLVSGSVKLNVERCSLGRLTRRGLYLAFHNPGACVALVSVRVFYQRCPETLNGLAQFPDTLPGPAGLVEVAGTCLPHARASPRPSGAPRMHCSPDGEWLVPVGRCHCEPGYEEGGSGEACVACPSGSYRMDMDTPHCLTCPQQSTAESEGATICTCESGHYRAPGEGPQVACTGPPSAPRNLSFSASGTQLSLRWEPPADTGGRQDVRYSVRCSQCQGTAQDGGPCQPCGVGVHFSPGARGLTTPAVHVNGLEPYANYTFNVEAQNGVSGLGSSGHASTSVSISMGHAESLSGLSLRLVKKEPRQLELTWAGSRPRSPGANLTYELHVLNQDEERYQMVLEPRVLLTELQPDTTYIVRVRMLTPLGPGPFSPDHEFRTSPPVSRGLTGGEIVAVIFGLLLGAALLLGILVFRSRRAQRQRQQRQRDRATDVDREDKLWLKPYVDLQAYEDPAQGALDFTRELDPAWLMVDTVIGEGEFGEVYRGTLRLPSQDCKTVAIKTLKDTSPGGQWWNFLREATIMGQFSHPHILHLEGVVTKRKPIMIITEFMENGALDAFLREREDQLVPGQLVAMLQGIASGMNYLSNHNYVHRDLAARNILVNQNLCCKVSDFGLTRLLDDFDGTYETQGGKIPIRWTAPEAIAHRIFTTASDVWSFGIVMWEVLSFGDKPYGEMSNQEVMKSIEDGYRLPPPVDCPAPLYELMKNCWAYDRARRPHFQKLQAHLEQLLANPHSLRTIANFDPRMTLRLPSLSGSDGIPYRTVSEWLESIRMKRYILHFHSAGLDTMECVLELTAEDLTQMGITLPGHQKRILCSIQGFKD

[10] = biological target: Mitogen-activated protein kinase 14 (Homo sapiens) (UniProt Q16539); experiment: Inhibition of p38alpha in human PC3 cell lysates at 10 uM using desthiobiotin-tagged ATP probe AX9989 followed by trypsinization by LC/MS analysis; details: PC-3
Sequence of Mitogen-activated protein kinase 14 (Homo sapiens) (Q16539 whole entry): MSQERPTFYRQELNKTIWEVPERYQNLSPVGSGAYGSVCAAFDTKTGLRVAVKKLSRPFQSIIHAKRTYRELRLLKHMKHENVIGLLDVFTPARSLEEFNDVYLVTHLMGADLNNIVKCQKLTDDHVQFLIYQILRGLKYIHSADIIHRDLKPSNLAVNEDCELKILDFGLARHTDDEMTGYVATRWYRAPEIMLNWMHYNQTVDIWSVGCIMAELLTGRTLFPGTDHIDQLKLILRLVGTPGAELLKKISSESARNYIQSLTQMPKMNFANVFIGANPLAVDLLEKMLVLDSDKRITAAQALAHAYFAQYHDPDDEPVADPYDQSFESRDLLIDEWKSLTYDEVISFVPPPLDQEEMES

Sequence of Cyclin-dependent kinase 14 (Homo sapiens) (O94921 whole entry, canonical isoform): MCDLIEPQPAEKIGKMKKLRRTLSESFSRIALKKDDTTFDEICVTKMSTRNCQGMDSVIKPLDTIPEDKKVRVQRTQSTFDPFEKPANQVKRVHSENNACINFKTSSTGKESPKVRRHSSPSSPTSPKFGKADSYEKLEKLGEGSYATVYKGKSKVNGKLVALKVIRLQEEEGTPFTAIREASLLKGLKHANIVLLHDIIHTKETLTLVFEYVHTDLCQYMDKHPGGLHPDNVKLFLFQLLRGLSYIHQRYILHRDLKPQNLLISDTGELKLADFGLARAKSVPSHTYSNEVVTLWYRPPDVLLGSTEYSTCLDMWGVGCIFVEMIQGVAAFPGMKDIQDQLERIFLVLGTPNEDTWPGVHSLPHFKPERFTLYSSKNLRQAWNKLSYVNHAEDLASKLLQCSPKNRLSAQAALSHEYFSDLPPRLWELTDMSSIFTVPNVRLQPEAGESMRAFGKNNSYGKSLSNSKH
Sequence of Microtubule-associated serine/threonine-protein kinase 3 (O60307 whole entry): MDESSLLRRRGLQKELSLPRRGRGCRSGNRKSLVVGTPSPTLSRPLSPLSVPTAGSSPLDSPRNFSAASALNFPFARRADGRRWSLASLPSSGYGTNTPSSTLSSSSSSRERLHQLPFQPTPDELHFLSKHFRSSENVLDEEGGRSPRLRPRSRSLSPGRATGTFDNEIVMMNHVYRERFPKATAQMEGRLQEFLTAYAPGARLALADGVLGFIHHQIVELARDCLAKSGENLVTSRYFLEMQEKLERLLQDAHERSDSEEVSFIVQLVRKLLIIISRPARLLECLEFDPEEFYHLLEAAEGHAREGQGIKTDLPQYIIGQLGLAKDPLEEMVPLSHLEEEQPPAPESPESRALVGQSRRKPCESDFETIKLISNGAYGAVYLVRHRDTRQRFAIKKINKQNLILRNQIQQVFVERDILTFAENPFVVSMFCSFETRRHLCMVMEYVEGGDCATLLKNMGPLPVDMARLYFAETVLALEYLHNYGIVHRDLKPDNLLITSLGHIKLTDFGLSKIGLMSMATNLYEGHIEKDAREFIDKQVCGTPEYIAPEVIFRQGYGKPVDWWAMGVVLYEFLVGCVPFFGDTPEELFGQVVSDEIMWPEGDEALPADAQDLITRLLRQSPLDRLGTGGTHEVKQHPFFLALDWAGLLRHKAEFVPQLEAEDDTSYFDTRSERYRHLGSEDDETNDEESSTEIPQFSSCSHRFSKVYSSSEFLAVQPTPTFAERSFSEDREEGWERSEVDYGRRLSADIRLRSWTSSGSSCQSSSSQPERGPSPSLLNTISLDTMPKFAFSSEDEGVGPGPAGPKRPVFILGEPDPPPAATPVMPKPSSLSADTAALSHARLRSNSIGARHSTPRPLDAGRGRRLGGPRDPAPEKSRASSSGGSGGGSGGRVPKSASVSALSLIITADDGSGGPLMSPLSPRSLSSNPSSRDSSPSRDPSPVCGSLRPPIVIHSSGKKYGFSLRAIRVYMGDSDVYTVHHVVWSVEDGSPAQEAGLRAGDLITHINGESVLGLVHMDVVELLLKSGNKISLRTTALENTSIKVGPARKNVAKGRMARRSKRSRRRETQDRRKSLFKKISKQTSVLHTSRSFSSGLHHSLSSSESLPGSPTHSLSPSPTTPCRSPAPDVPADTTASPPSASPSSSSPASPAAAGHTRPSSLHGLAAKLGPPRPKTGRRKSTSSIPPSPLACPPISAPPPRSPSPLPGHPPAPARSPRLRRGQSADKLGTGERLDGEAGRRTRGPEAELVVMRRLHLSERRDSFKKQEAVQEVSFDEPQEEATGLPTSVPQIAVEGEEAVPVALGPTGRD
Sequence of Phosphatidylinositol 4,5-bisphosphate 3-kinase catalytic subunit beta isoform (Homo sapiens) (P42338 whole entry, looked up, canonical isoform): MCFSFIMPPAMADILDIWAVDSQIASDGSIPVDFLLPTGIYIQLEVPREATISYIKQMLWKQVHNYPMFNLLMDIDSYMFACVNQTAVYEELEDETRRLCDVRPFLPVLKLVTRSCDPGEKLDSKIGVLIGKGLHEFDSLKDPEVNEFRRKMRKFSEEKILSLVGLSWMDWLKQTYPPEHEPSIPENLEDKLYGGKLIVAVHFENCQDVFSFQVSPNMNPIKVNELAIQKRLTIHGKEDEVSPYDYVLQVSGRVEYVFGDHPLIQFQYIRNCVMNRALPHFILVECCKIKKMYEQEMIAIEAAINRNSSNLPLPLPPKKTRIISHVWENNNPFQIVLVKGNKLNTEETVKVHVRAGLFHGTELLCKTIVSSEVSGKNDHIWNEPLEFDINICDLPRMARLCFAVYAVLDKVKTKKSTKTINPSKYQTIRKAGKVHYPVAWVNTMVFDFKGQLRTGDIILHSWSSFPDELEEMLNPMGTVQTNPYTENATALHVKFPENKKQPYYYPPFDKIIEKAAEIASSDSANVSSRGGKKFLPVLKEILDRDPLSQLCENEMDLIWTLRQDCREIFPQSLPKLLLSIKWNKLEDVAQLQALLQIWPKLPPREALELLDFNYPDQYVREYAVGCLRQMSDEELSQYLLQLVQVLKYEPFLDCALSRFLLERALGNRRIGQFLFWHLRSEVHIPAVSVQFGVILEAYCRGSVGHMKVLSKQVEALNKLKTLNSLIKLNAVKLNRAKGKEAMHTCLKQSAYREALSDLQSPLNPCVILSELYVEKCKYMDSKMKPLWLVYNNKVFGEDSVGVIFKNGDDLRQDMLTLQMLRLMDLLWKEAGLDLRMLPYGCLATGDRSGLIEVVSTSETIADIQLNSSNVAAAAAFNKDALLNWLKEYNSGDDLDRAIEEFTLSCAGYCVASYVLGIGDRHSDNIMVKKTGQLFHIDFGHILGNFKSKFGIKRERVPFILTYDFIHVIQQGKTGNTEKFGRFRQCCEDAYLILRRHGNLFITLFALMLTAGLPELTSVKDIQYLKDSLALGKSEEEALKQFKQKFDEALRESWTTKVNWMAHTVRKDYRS
Sequence of Hepatocyte growth factor receptor (Homo sapiens) (P08581 whole entry): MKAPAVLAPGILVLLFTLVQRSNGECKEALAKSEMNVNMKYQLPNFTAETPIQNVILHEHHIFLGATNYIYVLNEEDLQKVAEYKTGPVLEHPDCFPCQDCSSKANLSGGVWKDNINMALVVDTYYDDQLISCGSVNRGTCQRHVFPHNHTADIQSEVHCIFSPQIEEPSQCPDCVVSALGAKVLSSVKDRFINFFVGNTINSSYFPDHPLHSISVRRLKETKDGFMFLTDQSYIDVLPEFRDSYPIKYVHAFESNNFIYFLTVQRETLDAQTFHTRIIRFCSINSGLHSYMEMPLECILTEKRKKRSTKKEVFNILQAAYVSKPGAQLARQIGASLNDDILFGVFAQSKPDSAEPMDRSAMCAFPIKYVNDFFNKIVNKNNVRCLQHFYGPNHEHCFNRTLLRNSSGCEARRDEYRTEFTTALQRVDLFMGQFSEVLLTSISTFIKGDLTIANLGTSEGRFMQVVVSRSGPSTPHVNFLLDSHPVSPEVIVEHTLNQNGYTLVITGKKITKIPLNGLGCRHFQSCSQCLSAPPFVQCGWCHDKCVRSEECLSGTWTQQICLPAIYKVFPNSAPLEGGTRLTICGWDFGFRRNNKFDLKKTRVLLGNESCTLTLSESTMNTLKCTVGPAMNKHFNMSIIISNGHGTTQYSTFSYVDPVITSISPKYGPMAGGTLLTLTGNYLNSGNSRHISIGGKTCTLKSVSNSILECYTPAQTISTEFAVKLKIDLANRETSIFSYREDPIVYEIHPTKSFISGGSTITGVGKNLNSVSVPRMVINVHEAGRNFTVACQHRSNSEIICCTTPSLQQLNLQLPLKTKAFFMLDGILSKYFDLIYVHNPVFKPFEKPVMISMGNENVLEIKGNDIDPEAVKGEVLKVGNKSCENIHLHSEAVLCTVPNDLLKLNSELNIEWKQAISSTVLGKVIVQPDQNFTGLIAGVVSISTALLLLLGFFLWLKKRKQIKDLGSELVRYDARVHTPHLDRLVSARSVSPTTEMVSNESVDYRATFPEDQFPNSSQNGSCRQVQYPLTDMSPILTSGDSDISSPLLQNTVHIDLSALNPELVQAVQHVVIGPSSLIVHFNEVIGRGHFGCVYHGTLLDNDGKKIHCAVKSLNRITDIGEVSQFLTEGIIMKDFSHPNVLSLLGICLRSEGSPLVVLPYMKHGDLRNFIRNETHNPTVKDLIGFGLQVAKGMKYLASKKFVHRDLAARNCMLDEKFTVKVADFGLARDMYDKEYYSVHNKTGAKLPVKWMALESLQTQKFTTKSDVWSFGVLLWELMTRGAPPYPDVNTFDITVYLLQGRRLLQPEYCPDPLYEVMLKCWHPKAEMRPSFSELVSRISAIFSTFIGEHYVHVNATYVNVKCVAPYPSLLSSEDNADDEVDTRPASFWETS

Compound	inhibition [1]	inhibition [2]	inhibition [3]	inhibition [5]	inhibition [6]	inhibition [7]	inhibition [8]	inhibition [9]	inhibition [10]	inhibition [4]	inhibition (PC-3)
CCC[C@@H](NC(=O)c1ccc2nc(N[C@H]3CC[C@H](O)CC3)c3nccn3c2c1)c1ccccc1	< 35%	< 35%	90.2%	< 35%	< 35%	< 35%	< 35%	< 35%	< 35%	< 35%	< 35%
O=C(NC1(c2ccccc2)CC1)c1ccc2nc(N[C@H]3CC[C@H](O)CC3)c3nccn3c2c1	< 35%	< 35%	98.9%	< 35%	< 35%	< 35%	< 35%	< 35%	< 35%	< 35%	< 35%
O=C(NC1(c2ccc(F)cc2)CC1)c1ccc2nc(N[C@H]3CC[C@H](O)CC3)c3nccn3c2c1	< 35%	< 35%	97.6%	< 35%	< 35%	< 35%	< 35%	< 35%	< 35%	< 35%	< 35%
CC(C)(NC(=O)c1ccc2nc(N[C@H]3CC[C@H](O)CC3)c3nccn3c2c1)c1ccccc1	< 35%	< 35%	99.3%	< 35%	< 35%	< 35%	< 35%	< 35%	< 35%	< 35%	< 35%
C[C@@H](NC(=O)c1ccc2nc(N[C@H]3CC[C@H](O)CC3)c3nccn3c2c1)c1ccccc1	< 35%	< 35%	97%	< 35%	< 35%	< 35%	< 35%	< 35%	< 35%	< 35%	< 35%
O=C(N[C@H](CO)c1ccccc1)c1ccc2nc(N[C@H]3CC[C@H](O)CC3)c3nccn3c2c1	< 35%	< 35%	97.9%	< 35%	< 35%	< 35%	< 35%	< 35%	< 35%	< 35%	< 35%
O=C(NC1(Cc2ccc(F)cc2)CC1)c1ccc2nc(N[C@H]3CC[C@H](O)CC3)c3nccn3c2c1	< 35%	< 35%	< 35%	< 35%	< 35%	< 35%	< 35%	< 35%	< 35%	< 35%	< 35%

Continued, in another order:

inhibition [1]	inhibition [2]	inhibition [3]	inhibition [5]	inhibition [6]	inhibition [7]	inhibition [8]	inhibition [9]	inhibition [10]	Compound	inhibition [4]	inhibition (PC-3)
< 35%	44.4%	< 35%	< 35%	< 35%	< 35%	< 35%	< 35%	< 35%	NC(=O)c1ccc2nc(N[C@H]3CC[C@H](O)CC3)c3nccn3c2c1	95.6%	37%
59.1%	57.7%	< 35%	80.1%	37.1%	< 35%	< 35%	< 35%	< 35%	O=C(O)c1ccc2nc(N[C@H]3CC[C@H](O)CC3)c3nccn3c2c1	99.3%	< 35%
< 35%	< 35%	99.2%	< 35%	< 35%	< 35%	< 35%	< 35%	< 35%	O=C(NC1(c2ccccc2)CCC1)c1ccc2nc(N[C@H]3CC[C@H](O)CC3)c3nccn3c2c1	< 35%	< 35%
< 35%	< 35%	76.3%	< 35%	< 35%	< 35%	< 35%	< 35%	< 35%	C[C@H](NC(=O)c1ccc2nc(N[C@H]3CC[C@H](O)CC3)c3nccn3c2c1)c1ccccc1	< 35%	< 35%
< 35%	< 35%	96.2%	< 35%	< 35%	< 35%	< 35%	< 35%	< 35%	CC[C@@H](NC(=O)c1ccc2nc(N[C@H]3CC[C@H](O)CC3)c3nccn3c2c1)c1ccccc1	< 35%	< 35%
